Laboratory results reported in patent US20100105651A1, “ANTAGONISTS OF SNS SODIUM CHANNELS” (priority 2005, published 2010).

Target: T1, human NaV1.8 (hNaV1.8) ion channel (Homo sapiens, UniProt Q9Y5Y9)
T1 construct: expressed in transfected cells
Experiment: Inhibition of Human NaV1.8 stably expressed in SH-SY-5Y cells (membrane potential dye fluorescence assay)
Assay type: cell-based
Conditions: SH-SY-5Y cells stably expressing hNaV1.8; FLIPR membrane potential dye; 10 μM pyrethroid, 250 nM TTX; test range 100 μM-0.05 μM; read-out: hNav1.8 IC50

T1 sequence (Q9Y5Y9 whole entry): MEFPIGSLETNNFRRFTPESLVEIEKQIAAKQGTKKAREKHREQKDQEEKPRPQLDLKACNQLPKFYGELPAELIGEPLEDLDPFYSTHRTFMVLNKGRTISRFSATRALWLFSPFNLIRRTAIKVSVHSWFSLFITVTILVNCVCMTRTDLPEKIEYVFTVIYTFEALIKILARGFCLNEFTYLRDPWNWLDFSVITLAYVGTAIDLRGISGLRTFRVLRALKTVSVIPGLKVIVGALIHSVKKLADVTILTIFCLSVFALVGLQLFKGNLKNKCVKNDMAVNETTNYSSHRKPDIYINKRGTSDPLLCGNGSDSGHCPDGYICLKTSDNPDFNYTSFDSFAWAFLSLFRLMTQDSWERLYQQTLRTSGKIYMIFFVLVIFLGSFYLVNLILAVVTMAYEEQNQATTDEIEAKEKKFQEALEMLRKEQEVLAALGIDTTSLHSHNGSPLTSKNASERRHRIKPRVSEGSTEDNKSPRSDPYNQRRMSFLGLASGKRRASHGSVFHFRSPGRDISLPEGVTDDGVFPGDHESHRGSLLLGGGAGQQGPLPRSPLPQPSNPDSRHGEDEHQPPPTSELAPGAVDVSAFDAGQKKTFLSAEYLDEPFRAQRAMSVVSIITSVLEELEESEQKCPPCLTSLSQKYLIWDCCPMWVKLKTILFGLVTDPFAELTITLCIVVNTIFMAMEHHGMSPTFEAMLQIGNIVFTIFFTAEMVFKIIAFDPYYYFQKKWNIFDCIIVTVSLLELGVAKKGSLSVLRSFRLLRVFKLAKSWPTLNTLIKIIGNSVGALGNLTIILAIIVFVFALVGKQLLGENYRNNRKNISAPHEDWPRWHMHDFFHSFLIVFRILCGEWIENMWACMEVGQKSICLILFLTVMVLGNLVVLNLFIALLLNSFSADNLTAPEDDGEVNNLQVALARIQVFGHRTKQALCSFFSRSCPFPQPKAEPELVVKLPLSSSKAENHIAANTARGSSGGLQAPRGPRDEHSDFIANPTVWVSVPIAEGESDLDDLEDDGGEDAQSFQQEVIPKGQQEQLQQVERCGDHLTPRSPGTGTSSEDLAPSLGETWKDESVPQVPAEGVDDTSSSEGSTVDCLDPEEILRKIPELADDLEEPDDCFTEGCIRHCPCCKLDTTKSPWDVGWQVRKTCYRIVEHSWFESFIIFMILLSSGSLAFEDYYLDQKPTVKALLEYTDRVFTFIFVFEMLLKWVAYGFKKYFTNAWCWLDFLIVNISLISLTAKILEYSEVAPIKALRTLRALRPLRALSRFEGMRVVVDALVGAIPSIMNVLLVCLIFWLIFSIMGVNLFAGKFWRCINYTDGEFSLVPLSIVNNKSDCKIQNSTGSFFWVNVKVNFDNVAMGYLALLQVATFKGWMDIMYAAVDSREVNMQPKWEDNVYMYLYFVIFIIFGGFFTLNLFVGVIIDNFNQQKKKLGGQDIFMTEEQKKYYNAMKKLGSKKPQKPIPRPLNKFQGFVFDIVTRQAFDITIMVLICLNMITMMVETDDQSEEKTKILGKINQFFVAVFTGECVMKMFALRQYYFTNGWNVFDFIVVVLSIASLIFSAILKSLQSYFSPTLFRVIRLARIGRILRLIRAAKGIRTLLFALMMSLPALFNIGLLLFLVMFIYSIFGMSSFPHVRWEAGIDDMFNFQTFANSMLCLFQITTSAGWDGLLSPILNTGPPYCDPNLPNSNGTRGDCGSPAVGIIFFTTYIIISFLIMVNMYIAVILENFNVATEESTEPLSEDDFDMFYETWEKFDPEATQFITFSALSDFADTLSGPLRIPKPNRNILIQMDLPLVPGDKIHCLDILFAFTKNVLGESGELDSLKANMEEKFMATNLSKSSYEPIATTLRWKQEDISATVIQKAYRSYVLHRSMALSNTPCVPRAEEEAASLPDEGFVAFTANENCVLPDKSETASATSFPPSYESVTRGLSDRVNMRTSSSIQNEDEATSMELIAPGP

Row | SMILES | IC50
1 | O=C(Nc1ccc(Oc2ccccc2F)cc1)N1CC(NC2CCc3cc(Cl)ccc32)C1 (centres unmarked) [Example 133, 3-(5-Chloro-indan-1-ylamino)-azetidine-1-carboxylic acid [4-(2-fluoro-phenoxy)-phenyl]-amide] | 1550 nM
2 | Cc1cc(F)ccc1C(C)N(C)C1CN(C(=O)Nc2ccc(Oc3ccccc3)cc2)C1 (centres unmarked) [Example 117, 3-{[1-(4-Fluoro-2-methyl-phenyl)-ethyl]-methyl-amino}-azetidine-1-carboxylic acid (4-phenoxy-phenyl)-amide] | 890 nM
